Assay results taken from patent US9682114B2, “Plant extracts of Ptaeroxylon obliquum nand compounds having antimicrobial and antihelminthic activity” (UNIVERSITY OF PRETORIA, priority 2013, dated 2017).

Structure (SMILES): CC(=O)OCC1=CCc2c(cc(O)c3c(=O)cc(C)oc23)OC1 [Compound 2, 8,11-Dihydro-5-hydroxy-12-hydroxymethyl-2-methyl-4H-pyrano[2,3-g][1]benzoxepin-4-one 12-O-acetate]
- Cytotoxicity LC50 (human liver (C3A) cells): > 200 mg/L
- Cytotoxicity LC50 (Vero monkey kidney cells): > 200 mg/L
